# Legend:
# CDK6/CyclinD1 = target: T1, CDK6/CyclinD1 (Homo sapiens, UniProt Q00534); test: In vitro cell-free CDK6/CyclinD1 kinase activity assay (TR-FRET); assay type: biochemical; conditions: ATP at Km
# T1 construct: purchased Carna 04-114
# Description: It should be noted that the assay can also be conducted by a similar method. The assay steps in this Test Example are as follows:
# The CDK6/CyclinD1 kinase activity was determined using a time-resolved fluorescence resonance energy transfer (TR-FRET) method. Measurements were performed in a reaction volume of 20 μL using 384-well assay plates. […] The reaction was stopped by adding a mixture of a peptide antibody (trade name: Cisbio, product No. 64CUSKAY) and Sa-XL665 (trade name: Cisbio, product No. 610SAXLB) diluted in HTRF KinEASE detection buffer (trade name: Cisbio, product No. 62SDBRDF, containing EDTA). After the mixture was incubated for 1 hour at room temperature, the plate was read. The TR-FRET signal was measured on a multimode plate reader (EnVision™, a multi-function microplate detector, PerkinElmer) at an excitation wavelength (λEx) of 330 nm and detection wavelengths (λEm) of 615 and 665 nm. The activity was determined by the ratio of fluorescence at 665 nm to that at 615 nm. For each compound, the enzyme activities of different concentrations of the compound were measured to determine IC50. The negative control contained no inhibitor. Two no-enzyme controls were used to determine baseline fluorescence levels. IC50 was obtained by fitting using the GraphPad 6.02 software.
# 8-10 concentrations were prepared for each compound, and formulated in DMSO. The stock concentration was 200× the working concentration. For example, if the working concentration was 100 nM, the corresponding concentration of the formulated stock solution was 20 μM.
# In the analysis of in vitro inhibitory activity on CDK kinase, the IC50 value of each of the Example compounds and Reference Example compounds was determined.
# MCF-7 cells = test: Cell viability assay, MCF-7 cells (CellTiter-Glo, 168 h); assay type: cell-based; conditions: Homo sapiens, MCF7
# Description: An in vitro cell viability assay was conducted using some Example compounds following the steps below:
# 1. After recovery, MCF-7 cells (obtained from the Shanghai Cell Bank of the Chinese Academy of Sciences) were cultured at 37° C., 5% CO2, and 95% humidity.
# 2. 8 compound solutions at different concentrations were prepared for each Example compound. 50 μL of the compound solution at each concentration was added to a 96-well black plate.
# 3. The cell concentration was adjusted to about 30,000 cells/mL. 100 μL of the cell suspension was added to the 96-well plate, and mixed well to a final cell density of about 3,000 cells/well.
# 4. The 96-well plate was incubated at 37° C., 5% CO2, and 95% humidity for 168 h, i.e., 7 days.
# 5. The cell survival rate was measured by the method of CellTiter-Glo® Luminescent Cell Viability Assay (Promega, Cat #G7572). The fluorescence data were read on a microplate reader (EnVision™, a multi-function microplate detector, PerkinElmer).
# 6. The obtained fluorescence data were analyzed using the GraphPad Prism software. The cell survival rate was calculated for each Example compound at each concentration, and the IC50 interval of each Example compound was determined.
# T1 sequence (Q00534 whole entry): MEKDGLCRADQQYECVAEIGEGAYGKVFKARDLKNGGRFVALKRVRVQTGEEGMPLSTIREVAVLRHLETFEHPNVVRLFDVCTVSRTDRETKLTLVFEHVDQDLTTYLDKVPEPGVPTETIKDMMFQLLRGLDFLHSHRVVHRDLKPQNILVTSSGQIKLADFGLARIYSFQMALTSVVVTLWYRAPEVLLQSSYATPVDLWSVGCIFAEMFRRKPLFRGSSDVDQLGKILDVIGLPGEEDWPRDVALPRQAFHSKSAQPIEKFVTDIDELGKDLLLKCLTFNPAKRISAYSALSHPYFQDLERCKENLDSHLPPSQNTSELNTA
# T1 sequence (P24385 whole entry partner): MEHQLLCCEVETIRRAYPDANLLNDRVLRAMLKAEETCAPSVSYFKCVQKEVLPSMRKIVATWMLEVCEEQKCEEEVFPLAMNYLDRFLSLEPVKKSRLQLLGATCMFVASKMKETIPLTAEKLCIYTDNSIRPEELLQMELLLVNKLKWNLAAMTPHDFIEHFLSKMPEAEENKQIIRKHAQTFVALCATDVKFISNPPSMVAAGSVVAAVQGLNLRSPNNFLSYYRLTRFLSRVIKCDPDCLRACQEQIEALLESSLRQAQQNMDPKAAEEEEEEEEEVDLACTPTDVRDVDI
IC50 (CDK6/CyclinD1) [nM],IC50 (MCF-7 cells) [nM],Structure (SMILES)
< 100,< 500,[2H]C([2H])([2H])N1CCN(c2ccc(Nc3ncc4cc(C(=O)N(C)C)c(C5=CCOCC5)n4n3)nc2)CC1 [Example 106]
< 100,< 500,N#Cc1cc2cnc(Nc3ccc(N4CCNCC4)cc3)nn2c1-c1ccccc1 [Example 3]
< 100,< 500,N#Cc1cc2cnc(Nc3ccc(N4CCNCC4)cc3)nn2c1-c1ccc2ccccc2c1 [Example 14]
< 100,< 500,[2H]C([2H])([2H])N(C(=O)c1cc2cnc(Nc3ccc(N4CCNCC4)cn3)nn2c1C1=CCOCC1)C([2H])([2H])[2H] [Example 122]
100 to 1000,500 to 2500,FC(F)n1cc(-c2cc3cnc(Nc4ccc(N5CCNCC5)cn4)nn3c2C2=CCCC2)cn1 [Example 72]
< 100,< 500,N#Cc1cc2cnc(Nc3ccc(N4CCNCC4)cc3)nn2c1Br [Example 1]
< 100,500 to 2500,Cn1cc(-c2c(Br)c3cnc(Nc4ccc(N5CCNCC5)cc4)nn3c2Br)cn1 [Example 8]
< 100,< 500,[2H]C([2H])([2H])N(C(=O)c1cc2cnc(Nc3ccc(N4CCNCC4)cn3)nn2c1C1=CCCC1)C([2H])([2H])[2H] [Example 112]
< 100,< 500,[2H]C([2H])([2H])N(C(=O)c1cc2cnc(Nc3ccc(N4CCN(C)CC4)cn3)nn2c1-c1ccc(OC)cc1)C([2H])([2H])[2H] [Example 121]
< 100,< 500,C1=C(c2c(-c3ccncc3)cc3cnc(Nc4ccc(N5CCNCC5)cn4)nn23)CCC1 [Example 97]

# Further lines, the compound ahead of its results:
Structure (SMILES),IC50 (CDK6/CyclinD1) [nM],IC50 (MCF-7 cells) [nM]
Cn1cc(-c2cc3cnc(Nc4ccc(N5CCNCC5)cn4)nn3c2N2CCCC2)cn1 [Example 55],< 100,< 500
Cn1cc(-c2cc3cnc(Nc4ccc(N5CCNCC5)cn4)nn3c2)cn1 [Example 81],100 to 1000,2500 to 10000
N#Cc1cc2cnc(Nc3ccc(N4CCNCC4)cc3)nn2c1C1=CCCC1 [Example 2],< 100,< 500
COc1cc(F)ccc1-c1c(C(=O)N(C)C)cc2cnc(Nc3ccc(N4CC5(CNC5)C4)cn3)nn12 [Example 65],< 100,2500 to 10000
[2H]C([2H])([2H])N1CCN(c2ccc(Nc3ncc4cc(C(=O)N(C([2H])([2H])[2H])C([2H])([2H])[2H])c(-c5ccc(F)cc5)n4n3)nc2)CC1 [Example 125],< 100,< 500
"CP(C)(=O)c1ccc(Nc2ncc3cc(C#N)c(Br)n3n2)cc1 [Reference Example 128, reference compound]",1000 to 3000,> 10000
N#Cc1cc2cnc(Nc3ccc(N4CCNCC4)cc3)nn2c1-c1ccc(Cl)cc1 [Example 7],< 100,< 500
COCCOc1ccc(-c2c(C(=O)N(C)C)cc3cnc(Nc4ccc(N5CC6(CCNC6)C5)cn4)nn23)cc1 [Example 49],< 100,500 to 2500
Cn1cc(-c2cc3cnc(Nc4ccc(N5CCNCC5)cn4)nn3c2C2CCCC2)cn1 [Example 71],< 100,500 to 2500
[2H]C([2H])([2H])N(C(=O)c1cc2cnc(Nc3ccc(N4CCN(C)CC4)cn3)nn2c1C1=CCOCC1)C([2H])([2H])[2H] [Example 119],< 100,< 500
[2H]C([2H])([2H])N1CCN(c2ccc(Nc3ncc4cc(C(=O)N(C([2H])([2H])[2H])C([2H])([2H])[2H])c(-c5ccccc5)n4n3)nc2)CC1 [Example 123],< 100,< 500
N#Cc1cc2cnc(Nc3ccc(N4CCNCC4)cn3)nn2c1C1=CCCC1 [Example 25],< 100,< 500
Cc1cc(-c2cc3cnc(Nc4ccc(N5CCN(C)CC5)cn4)nn3c2C2=CCCC2)ccn1 [Example 110],< 100,< 500
COc1cc(F)ccc1-c1c(C#N)cc2cnc(Nc3ccc(N4CCNCC4)cc3)nn12 [Example 11],< 100,< 500
